Data: PubChem BioAssay AID1508591
“And” between values parts separate entries of the source, which are not always exact repeats. Equal entries are not always repeated.

Details: rat; liver microsomes; pH 7.4; 15.0 min; 1.0 µM

Row | SMILES | half-life
1 | O=C(Nc1nc(-c2ccccc2)cs1)c1ccccc1[N+](=O)[O-] | 17 min
2 | CN(C)S(=O)(=O)c1cccc(NC(=O)c2ccc[nH]2)c1 | 10.5 min
3 | O=C(Nc1ccc([S+](=O)([O-])Nc2nccs2)cc1)c1ncn[nH]1 | > 30 min
4 | CCc1ccc2ncc(C(=O)c3ccc(C)c(C)c3)c(N3CCC(C(N)=O)CC3)c2c1 | 1.47 min
5 | O=C(O)c1ccnc(-c2cc(C(=O)NCCc3ccccc3)ccn2)c1 | > 30 min
6 | Cn1nc(-c2ccccc2F)c2cc(C(=O)Nc3cc(F)ccc3F)sc21 | 26.2 min
7 | Fc1cc(Nc2nc(-c3ccncc3)nc3ccccc23)ccc1-c1ccc(F)c(F)c1F | 24 min
8 | CCOc1cccc(C(=O)Nc2nc3c(s2)CC(C(C)(C)C)CC3)c1 (configuration not stated) | 9.74 min
9 | CCc1ccc(NC(=O)c2[nH]c(C)c(C(C)=O)c2C)cc1S(=O)(=O)Nc1ccc(Br)cc1 | 23 min
10 | Fc1ccc(Nc2nc(-c3ccccc3)cc(-c3ccncc3)n2)cc1F | > 30 min
11 | COc1ccc(C2=Nn3c([n+](C)c4ccccc43)SC2)cc1 | > 30 min
12 | CCOc1ccc(/C=C/c2nc3ccccc3n2S(=O)(=O)c2ccc(Br)cc2)cc1 | > 30 min
13 | Cc1cc(C)nc(NC(=S)N2CCN(c3ccc4nsnc4c3)CC2)c1 | 15.2 min
14 | C[C@@H](NC(=O)c1ncnc(N)c1Cl)c1ncc(C(=O)Nc2cc(C(F)(F)F)c(Cl)cn2)s1 | > 30 min
15 | COc1ccc(-c2ccc3c(N4CCOC[C@@H]4C)nc(N4CCOC[C@@H]4C)nc3n2)cc1CO | > 30 min
16 | CC(C)C[C@H](NC(=O)[C@H](CCc1ccccc1)NC(=O)CN1CCOCC1)C(=O)N[C@@H](Cc1ccccc1)C(=O)N[C@@H](CC(C)C)C(=O)[C@@]1(C)CO1 | 3.52 min
17 | Cc1ccc(NS(=O)(=O)c2cccc(C(=O)O)c2)cc1S(=O)(=O)N1CCOCC1 | > 30 min
18 | O=C(Nc1ncc(-c2ccccc2)s1)c1ccc(-c2cccc([N+](=O)[O-])c2)o1 | > 30 min
19 | CCOC(=O)Nc1cc(-c2ccc(C)c(NS(C)(=O)=O)c2)nn2c(C)nnc12 | > 30 min
20 | Cc1ccc(-c2csc(N3CCC(C(N)=O)CC3)n2)cc1 | 2.22 min
21 | Cc1ccc(S(=O)(=O)Nc2cnccc2C(=O)Nc2ccc(-c3nc4ccccc4[nH]3)cc2)cc1 | 14 min
22 | CCNC(=O)C[C@@H]1N=C(c2ccc(Cl)cc2)c2cc(OC)ccc2-n2c(C)nnc21 | > 30 min
23 | Cc1noc(C)c1-c1ccc(Nc2nc(-c3ccncc3)nc3ccccc23)cc1F | 10 min
24 | Fc1cc(Nc2nc(-c3ccncc3)nc3ccccc23)ccc1-c1cccc(C(F)(F)F)c1 | > 30 min
25 | Cc1cc(C)c(CNC(=O)c2nc(-c3ccc(F)cc3)cc3c2ccn3C(C)C)c(=O)[nH]1 | 7.89 min
26 | Cc1ccc(S(=O)(=O)Nc2cnccc2C(=O)Nc2nc(-c3cccc(Cl)c3)cs2)cc1 | > 30 min

Row | SMILES | half-life
27 | c1ccc(-c2nc(N3CCCCCC3)c3ccccc3n2)nc1 | 2.18 min
28 | Cc1ccc(S(=O)(=O)Nc2ccncc2C(=O)Nc2nc(-c3ccccc3)cs2)cc1 | > 30 min
29 | NCC1CCC(C(=O)Oc2ccc(CCC(=O)O)cc2)CC1 (configuration not stated) | > 30 min
30 | Cc1nn(Cc2ccccc2Cl)c(C)c1CN(C)CC(O)COc1ccc(Cl)cc1 (configuration not stated) | 2.2 min
31 | COc1ccc(C2Nc3ccccc3C(=O)N2Cc2ccco2)cc1COc1ccc(NC(C)=O)cc1 (configuration not stated) | 1.35 min and 2.57 min
32 | CC1(C)CC(=O)C2=C(C1)NC(Nc1nc3ccccc3o1)=NC2c1ccccc1Cl (configuration not stated) | 11 min
33 | Cc1ccc(S(=O)(=O)Nc2cnccc2C(=O)Nc2ccc(-n3cncn3)cc2)cc1 | 21 min
34 | O=S(=O)(Nc1nccs1)c1ccc(NCc2cccc(Cl)c2Cl)cc1 | 25 min
35 | Oc1ccc(CNc2ccccc2Br)c2cccnc12 | 4.46 min
36 | Cc1ccc(NC(=O)Nc2cc3c(cc2N2CCCCC2)n(C)c(=O)n3C)cc1Cl | 6.3 min
37 | O=C(Cc1ccc(Cl)c(Cl)c1)Nc1ccc(S(=O)(=O)Nc2nncs2)cc1 | > 30 min
38 | Cc1ccnc(NC(=S)N2CCN(c3ccc(C(F)(F)F)cc3)CC2)c1 | > 30 min
39 | CNCc1ccc(-c2cc(-c3nc(-c4ccc(S(=O)(=O)C(C)C)cc4)cnc3N)on2)cc1 | > 30 min
40 | CC(C)C(=O)Nc1cccc(NC(=O)c2cc3ccccc3o2)c1 | 28 min
41 | Cc1ccc(-c2ccc(CNc3nc(-c4ccccc4C(C)C)ncc3F)cc2)cn1 | 4.5 min
42 | Cc1cc(C)nc(NC(=S)N2CCN(c3ccc(F)cc3F)CC2)c1 | > 30 min
43 | COc1ccc(-c2nc(NC(C)c3ccccc3)c3ccccc3n2)cc1 (configuration not stated) | 20.3 min
44 | COc1cccc(NC(=S)N2CCN(c3cccc(C(F)(F)F)c3)CC2)n1 | 17.6 min
45 | CNc1nc2c(s1)C(c1ccccc1F)CC(=O)N2 (configuration not stated) | 3.51 min
46 | COc1ccc(NC(=O)c2c(C)cccc2C)cc1S(=O)(=O)Nc1ccc(Br)cc1 | 5.2 min
47 | N=c1c2ccccc2nnn1-c1ccc(C(F)(F)F)cc1 | > 30 min
48 | Cc1nnc2c3ccccc3nc(N3CCN(c4ccccc4)CC3)n12 | > 30 min
49 | CCc1cccc(NS(=O)(=O)c2ccc3c(c2)CC(C)N3C(=O)C2CC2)c1 (configuration not stated) | 1.96 min
50 | COc1ccc(-c2csc(NC(=O)c3ccncc3NS(=O)(=O)c3ccc(C)cc3)n2)cc1 | 4.7 min
51 | Nc1ccc(-c2cccc3c(=O)cc(N4CCOCC4)oc23)cc1 | > 30 min
52 | CCCCn1cnc2cc(NCc3ccc(OCC)cc3)ccc21 | 10.3 min

Row | SMILES | half-life
53 | NC(=O)C1CCN(c2nc(-c3cccnc3)cs2)CC1 | > 30 min
54 | Oc1ccc2[nH]cc(CCCCN3CC=C(c4ccccc4)CC3)c2c1 | > 30 min
55 | Cc1ccccc1S(=O)(=O)N1CCCC(CCC(=O)NCCN(C)C2CCCCC2)C1 (configuration not stated) | 2.16 min
56 | O=C(CSc1ccccc1)Nc1nnc(COc2ccc(Cl)cc2)s1 | 7 min
57 | FC(F)(F)c1cccc(Nc2ccc(CNc3nc(-c4ccccc4C(F)(F)F)nc4ccccc34)cc2)c1 | 15.6 min
58 | CC(C)n1cc(-c2ccc3c(c2)N(C)CC3)c2c(NS(=O)(=O)c3ccn(C)n3)ccnc21 | 1.07 min
59 | CCOc1ccc(N2CC(c3nc(-c4cc(OC)c(OC)c(OC)c4)no3)CC2=O)cc1 (configuration not stated) | 7.3 min
60 | COc1c(NS(=O)(=O)c2ccc(C)cc2)cccc1C(=O)Nc1nc(-c2ccccc2)cs1 | 9.7 min
61 | CC(C)(C)NS(=O)(=O)c1ccc(-c2ccc3[nH]nc(N)c3c2)cc1 | 17.2 min
62 | O=[S+]([O-])(Nc1ccc2ccccc2c1)c1ccc(NCc2ccc(Cl)cc2O)cc1 | 21 min
63 | CNc1oc(-c2cccc(Cl)c2Cl)nc1C#N | 9.65 min
64 | O=C(Nc1ccccc1C(=O)Nc1cccc(C(F)(F)F)c1)c1ccccc1 | > 30 min
65 | CC(C)(C)OC(=O)N1CCN(c2ccc(NCc3ccc(-c4ccc(C#N)cc4)o3)cc2)CC1 | 3.62 min
66 | Cc1ccnc(NC(=S)N2CCN(c3ccc(Cl)c(Cl)c3)CC2)c1 | 24 min
67 | COc1cccc(CNc2ccc(S(=O)(=O)Nc3ccc(N4CCNCC4)nc3)cc2)c1O | > 30 min
68 | Cc1cc(NS(=O)(=O)c2ccc(NC(=O)Cc3ccc(F)c(Cl)c3)cc2)no1 | > 30 min
69 | Cc1cnccc1-c1nc(Nc2ccc(F)c(F)c2)c2ccccc2n1 | 10 min
70 | Nc1ccc(CNc2ccc([S+](=O)([O-])Nc3nccs3)cc2)c(O)c1 | > 30 min
71 | CCCc1ccc(NC(=O)c2ccc3c(c2)NC(=O)CS3)cc1 | 1.5 min
72 | NC(=O)C1CCN(c2nc(-c3cccc(N)c3)cs2)CC1 | > 30 min
73 | Cc1nn(CCc2nc(-c3ccccc3F)cs2)c2[nH]c(=O)cc(C(F)(F)F)c12 | 9.3 min
74 | COc1cc(C2c3c(oc4cc(C)c(C)cc4c3=O)C(=O)N2CCCN2CCOCC2)ccc1O (configuration not stated) | 12.7 min
75 | O=C1C(SCCO)=C(SCCO)C(=O)c2ccccc21 | > 30 min
76 | COc1cccc(-c2nc(-c3cc4cc(OC)ccc4[nH]c3=O)no2)c1 | 24 min
77 | CC(C)CN(C[C@@H](O)[C@H](Cc1ccccc1)NC(=O)O[C@@H]1CO[C@H]2OCC[C@H]21)S(=O)(=O)c1ccc(N)cc1 | 13.8 min
78 | CN(Cc1ccc(/C=C/C(=O)NO)cc1)CC12CC3CC(CC(C3)C1)C2 | 2.89 min

Row | SMILES | half-life
79 | COc1ccc2c(ccn2CCC(=O)Nc2ccc3c(c2)C(=O)N2CCC[C@H]2C(=O)N3)c1 | 9.22 min
80 | CN(C)c1ccc(S(=O)(=O)N2CCCCC2)cc1NS(=O)(=O)c1ccc2ccccc2c1 | 1.34 min
81 | C[C@@H]1[C@@H](CC(C[C@H]2O[C@@H]3O[C@]4(C)CC[C@@H]5[C@H](C)CC[C@@H]([C@H]2C)[C@@]35OO4)C(=O)NCc2ccc(F)cc2)O[C@@H]2O[C@]3(C)CC[C@H]4[C@H](C)CC[C@@H]1[C@@]24OO3 (some centres not stated) | 2.4 min
82 | N#Cc1c(NC(=O)c2cccc3ccccc23)sc2c1CCCC2 | 7.59 min
83 | NC(=O)C1CCN(c2nc(-c3ccccc3Br)cs2)CC1 | 2.86 min
84 | Cc1cc(NC(=O)c2ccc(NC(=O)Cc3ccc(Cl)c(Cl)c3)cc2)no1 | 22 min
85 | O=C(O)c1cccc(-c2cnc3ccccc3c2)c1 | > 30 min
86 | COc1ccccc1CNc1ccc(N2CCCCC2)cc1 | 2.19 min
87 | CCOC(=O)N1CCN(Cc2nc3cc(NC(=O)CC(C)C)ccc3n2C(C)C)CC1 | > 30 min
88 | CC1CCN(S(=O)(=O)c2ccc3c(c2)C(C)(C)C(=O)N3CC(=O)NCc2ccco2)CC1 | 1.8 min
89 | Cn1c(C(=O)NCCc2ccccn2)nc2nc(-c3ccccc3)c(Cl)cc21 | 7.82 min
90 | NC(=O)C1CCN(c2nc(-c3ccc(N)cc3)cs2)CC1 | > 30 min
91 | Clc1ccccc1-c1nc(NCc2ccc(-c3cccnc3)cc2)c2ccccc2n1 | 6.99 min
92 | O=C1c2ccccc2C2=Nc3ccccc3SC(c3ccc(Cl)cc3)C12 (configuration not stated) | 2.96 min
93 | Cc1cc(N2CCN(c3ccccc3)CC2)nc(-n2nc(C)cc2C)n1 | > 30 min
94 | Nc1ccccc1OCCn1c(CCNC(=O)C2CCCCC2)nc2ccccc21 | 2.13 min
95 | COc1ccc(-n2cnc3cc(C(=O)N4CCCCC4)ccc32)cc1 | 20.7 min
96 | COc1cc(-c2ccnc3c2c(C)nn3-c2ccc(C(F)(F)F)cc2)ccc1O | > 30 min
97 | COc1ccccc1NC(=O)C1=C(C)Nc2c(C(=O)Nc3ccc(F)cc3)cnn2C1c1ccc(Cl)cc1 (configuration not stated) | 3.34 min
98 | Cc1ccccc1C(=O)Nc1ccc2c(c1)CCCN2C(=O)c1cccs1 | 7.79 min
99 | CS(=O)(=O)c1ccc(-c2cnc(NCc3ccco3)n3cnnc23)cc1 | > 30 min
100 | O=C1Nc2ccccc2/C1=C/c1ccc[nH]1 | 5.1 min
101 | Clc1cccc(COc2cncc(N3CCNCC3)n2)c1 | 2.55 min
102 | Cc1nc(NC(=O)C2CC(=O)N(c3n[nH]c4cc(Br)ccc34)C2)sc1C (configuration not stated) | 18.5 min
